Measured values from patent US12208118B2, “Pharmaceutical compositions for delivery of peptide” (ANYA BIOPHARM INC., priority 2017, dated 2025).

How the values were obtained:
[1] = Quantification of liraglutide level in dog plasma using ELISA kit; type: in vivo; conditions: following subcutaneous and oral administration, dogs
Experimental: Quantification of Liraglutide Level in Dog Plasma Using ELISA Kit
Test formulation I: Liraglutide—Appearance: Solution for injection in a prefilled pen; Concentration: 6 mg/ml; Date of manufacture: February 2017; Date of expiry: July 2019; Storage condition: 2-8° C.; Dose: 0.6 mg/dog; Route: SC.
Test formulation II (FA): MIRA 5 (Table 15E)+PA 2 (Table 16F)—Dose: 12 mg (one capsule)/dog; Route: Oral.
Test formulation III (G): MIRA 5 (Table 15E)+PA 3+4 (Table 16G)—Dose: 12 mg (one capsule)/dog; Route: Oral
The clinical signs observed are normal. Body weights of the dogs used in the study were recorded prior to dosing. During the period of dose administration, the dogs (Canis lupus familiaris. Breed: Beagle) were fasted (water allowed) overnight for approx. 12 hours prior to and 4 hours post dose administration. During dosing, the blood collection time points was at 0, 20, 30, 60, 120, 180, 240, 480 minutes post dose. […] Glucose was measured immediately after blood collection using Glucometer. […]
Kit Protocol: Used manufacturer recommended protocol (Cat.No.KBI5020) Ver2.0—(1) Determine wells for diluted standard, blank and sample. […] Add 50 μL each of dilutions of standard (read Reagent Preparation), blank and samples into the appropriate wells, respectively. […] Then, run the microplate reader and conduct measurement at 450 nm immediately.

[2] = Quantification of octreotide in rat plasma using ELISA kit; type: in vivo, S.D. rat; conditions: following subcutaneous and distal small intestine (ileum) administration, rats
Experimental: Quantification of Octreotide in Rat Plasma Using ELISA Kit
Test formulation I: Octreotide—Apprearance: Solution for injection; Concentration: 0.1 mg/ml; Storage condition: 2-8° C.; Dose: 10 μg/kg; Route: SC.
Test formulation II: MIRA 3 (Table 15C)+PA 1 (Table 16C) to be dosed into distal small intestine (ileum) to anesthetized S.D. rat; Dose: 144 μg/animal; Route: distal small intestine (ileum). During the experiment, the animals were non-fasted.
The clinical signs observed are normal. During dosing, the blood collection time points were at 0, 7, 15, 30, 45, 60 and 90 min post dose. ˜100 μl of blood was collected in a pre-filled Na-EDTA eppendorf, from retro-orbital sinus puncture. Blood was centrifuged at 5000 rpm, 5 min, 4° c. to obtain plasma.
Source: PeninsulaLaboratories International, Inc, Cat. No. S-1341.0001
Kit Protocol: Used manufacturer recommended protocol (Cat. No. S-1341.0001)—Into each well of the immunoplate add 25 μl antiserum (in EIA buffer). Add 25 μl EIA buffer to blank wells; Incubate at room temperature for 1 hour; Add 50 μl standard or sample (in diluent). […] Add 50 μl diluent to blank wells; Incubate at room temperature for 2 hours. […] You may read the developing blue color at 650 nm and use the data for your calculations. […] Read absorbance at 450 nm within ten minutes.

[3] = Quantification of teriparatide in rat plasma using ELISA kit; type: in vivo, S.D. rats; conditions: following subcutaneous and distal small intestine (ileum) administration, rats
Experimental: Quantification of Teriparatide in Rat Plasma Using ELISA Kit
Test formulation I: Teriparatide; Apprearance: Solution for injection; Concentration: 600 μg/2.4 ml; Storage condition: 2-8° C.; Dose: 10 μg/animal; Route: SC.
Test formulation II: MIRA 4 (Table 15D) plus PA1 (Table 16D) was dosed into distal small intestine (ileum) at a dose of 240 μg/animal to anesthetized rats; Dose: 240 μg/animal; Route: distal small intestine (ileum).
Test formulation III: MIRA 1 (Table 15A) plus PA3 (Table 16E) was dosed into distal small intestine (ileum) at a dose of 240 μg/animal to anesthetized S.D. rats; Dose: 240 μg/animal; Route: distal small intestine (ileum).
During the experiment, the animals were non-fasted. […] The clinical signs observed are normal. […]
Kit Protocol: Used manufacturer recommended protocol (Cat.No. 60-3900)—Place a sufficient number of Streptavidin Coated Strips in a holder to run PTH standards, controls and unknown samples; Pipet 150 μL of standard, control, or sample into the designated or mapped well. […] Read the absorbance at 620 nm (see Note) within 5 minutes in a microtiter plate reader against the 0 μg/mL Standard wells as a blank; Immediately pipet 50 μL of ELISA Stop Solution into each of the wells. […]

SMILES: CCCCCCCCCCCCCCCC(=O)N[C@@H](CCC(=O)NCCCC[C@H](NC(=O)[C@H](C)NC(=O)[C@H](C)NC(=O)[C@H](CCC(N)=O)NC(=O)CNC(=O)[C@H](CCC(=O)O)NC(=O)[C@H](CC(C)C)NC(=O)[C@H](Cc1ccc(O)cc1)NC(=O)[C@H](CO)NC(=O)[C@H](CO)NC(=O)[C@@H](NC(=O)[C@H](CC(=O)O)NC(=O)[C@H](CO)NC(=O)[C@@H](NC(=O)[C@H](Cc1ccccc1)NC(=O)[C@@H](NC(=O)CNC(=O)[C@H](CCC(=O)O)NC(=O)[C@H](C)NC(=O)[C@@H](N)Cc1cnc[nH]1)[C@@H](C)O)[C@@H](C)O)C(C)C)C(=O)N[C@@H](CCC(=O)O)C(=O)N[C@@H](Cc1ccccc1)C(=O)N[C@H](C(=O)N[C@@H](C)C(=O)N[C@@H](Cc1c[nH]c2ccccc12)C(=O)N[C@@H](CC(C)C)C(=O)N[C@H](C(=O)N[C@@H](CCCNC(=N)N)C(=O)NCC(=O)N[C@@H](CCCNC(=N)N)C(=O)NCC(=O)O)C(C)C)[C@@H](C)CC)C(=O)O [Liraglutide]
- clinical signs [1]: normal
- mortality [1]: no mortality observed

SMILES: C[C@@H](O)[C@@H]1NC(=O)[C@H](CCCCN)NC(=O)[C@@H](Cc2c[nH]c3ccccc23)NC(=O)[C@H](Cc2ccccc2)NC(=O)[C@@H](NC(=O)[C@H](N)Cc2ccccc2)CSSC[C@@H](C(=O)N[C@H](CO)[C@@H](C)O)NC1=O [octreotide]
- clinical signs [2]: normal
- mortality [2]: no mortality observed

SMILES: CC[C@H](C)[C@H](NC(=O)[C@H](CCC(=O)O)NC(=O)[C@H](CO)NC(=O)[C@@H](NC(=O)[C@@H](N)CO)C(C)C)C(=O)N[C@@H](CCC(N)=O)C(=O)N[C@@H](CC(C)C)C(=O)N[C@@H](CCSC)C(=O)N[C@@H](Cc1cnc[nH]1)C(=O)N[C@@H](CC(N)=O)C(=O)N[C@@H](CC(C)C)C(=O)NCC(=O)N[C@@H](CCCCN)C(=O)N[C@@H](Cc1cnc[nH]1)C(=O)N[C@@H](CC(C)C)C(=O)N[C@@H](CC(N)=O)C(=O)N[C@@H](CO)C(=O)N[C@@H](CCSC)C(=O)N[C@@H](CCC(=O)O)C(=O)N[C@@H](CCCN=C(N)N)C(=O)N[C@H](C(=O)N[C@@H](CCC(=O)O)C(=O)N[C@@H](Cc1c[nH]c2ccccc12)C(=O)N[C@@H](CC(C)C)C(=O)N[C@@H](CCCN=C(N)N)C(=O)N[C@@H](CCCCN)C(=O)N[C@@H](CCCCN)C(=O)N[C@@H](CC(C)C)C(=O)N[C@@H](CCC(N)=O)C(=O)N[C@@H](CC(=O)O)C(=O)N[C@H](C(=O)N[C@@H](Cc1cnc[nH]1)C(=O)N[C@@H](CC(N)=O)C(=O)N[C@@H](Cc1ccccc1)C(=O)O)C(C)C)C(C)C [teriparatide]
- clinical signs [3]: normal
- mortality [3]: no mortality observed
